The structures appear in SMILES notation. Where two headings read alike, the source gives them in different places. Where only a bound is given, the exact number is not on record here.

The text below walks through data of patent US8703210B1, “Adding calcium and bicarbonate to human blood” (Sang Lads, Inc., priority 2005, dated 2014).

For `O=C([O-])[O-].[Ca+2]` [Calcium carbonate, calcium carbonate], the pH result was “neutral” (after carbonic acid (in the form of club soda) is added to the mixture) and at most 9 (calcium carbonate powder dissolved into water).
